Source: patent US5561047A, “Method of identifying effectors of integrin activation” (priority 1994, dated 1996)
Read-outs that look alike come from different tables or passages of the source. Each block holds one compound with its values, some of them ahead of it.

Key:
[1] = test system: platelet aggregation and secretion; settings: Sless, Physiol. Rev. 1989; cited from earlier work
[2] = biological target: T1, integrin αIIb β3 (washed human platelets) (Homo sapiens, UniProt P05106+P08514); test: integrin activation ELISA: biotin-PAC1 binding to intact washed platelets; format: cell-based; settings: for extent of biotin-PAC1 binding at maximal agonist concentrations: comparison of thrombin, PMA and ADP; for αIIb β3 activation: physiological agonists
T1 construct: endogenous in cells; host or cells: washed human platelets from whole blood of healthy volunteers
T1 sequence (P08514 32-887 limits assumed): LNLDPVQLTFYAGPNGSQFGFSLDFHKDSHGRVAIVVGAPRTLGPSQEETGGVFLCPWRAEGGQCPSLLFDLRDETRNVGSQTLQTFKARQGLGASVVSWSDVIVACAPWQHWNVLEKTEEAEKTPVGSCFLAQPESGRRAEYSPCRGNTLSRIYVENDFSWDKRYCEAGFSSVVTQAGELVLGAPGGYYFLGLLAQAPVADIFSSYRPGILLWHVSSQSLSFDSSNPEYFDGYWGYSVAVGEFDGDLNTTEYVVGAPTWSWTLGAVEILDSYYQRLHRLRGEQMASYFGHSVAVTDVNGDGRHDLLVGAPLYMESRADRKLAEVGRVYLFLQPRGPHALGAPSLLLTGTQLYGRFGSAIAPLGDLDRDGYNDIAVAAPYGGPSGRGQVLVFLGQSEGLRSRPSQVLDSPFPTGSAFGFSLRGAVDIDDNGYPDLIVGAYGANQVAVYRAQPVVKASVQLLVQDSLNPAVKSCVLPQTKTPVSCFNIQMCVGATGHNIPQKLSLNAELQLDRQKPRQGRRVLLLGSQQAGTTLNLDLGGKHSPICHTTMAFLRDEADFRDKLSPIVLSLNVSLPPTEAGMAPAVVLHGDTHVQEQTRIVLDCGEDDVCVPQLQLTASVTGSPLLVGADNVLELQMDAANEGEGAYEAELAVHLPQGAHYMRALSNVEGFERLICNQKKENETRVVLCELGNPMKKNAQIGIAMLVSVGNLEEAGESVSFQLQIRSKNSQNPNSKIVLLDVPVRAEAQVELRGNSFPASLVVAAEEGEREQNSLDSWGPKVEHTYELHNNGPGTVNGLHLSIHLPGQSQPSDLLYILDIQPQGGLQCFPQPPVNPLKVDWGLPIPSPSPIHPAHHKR
T1 sequence (P08514 891-1039 limits assumed): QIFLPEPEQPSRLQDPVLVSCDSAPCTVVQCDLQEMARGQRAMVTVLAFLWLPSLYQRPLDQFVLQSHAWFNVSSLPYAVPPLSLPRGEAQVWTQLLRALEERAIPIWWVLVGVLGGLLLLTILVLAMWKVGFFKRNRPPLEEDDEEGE
T1 sequence (P05106 27-788): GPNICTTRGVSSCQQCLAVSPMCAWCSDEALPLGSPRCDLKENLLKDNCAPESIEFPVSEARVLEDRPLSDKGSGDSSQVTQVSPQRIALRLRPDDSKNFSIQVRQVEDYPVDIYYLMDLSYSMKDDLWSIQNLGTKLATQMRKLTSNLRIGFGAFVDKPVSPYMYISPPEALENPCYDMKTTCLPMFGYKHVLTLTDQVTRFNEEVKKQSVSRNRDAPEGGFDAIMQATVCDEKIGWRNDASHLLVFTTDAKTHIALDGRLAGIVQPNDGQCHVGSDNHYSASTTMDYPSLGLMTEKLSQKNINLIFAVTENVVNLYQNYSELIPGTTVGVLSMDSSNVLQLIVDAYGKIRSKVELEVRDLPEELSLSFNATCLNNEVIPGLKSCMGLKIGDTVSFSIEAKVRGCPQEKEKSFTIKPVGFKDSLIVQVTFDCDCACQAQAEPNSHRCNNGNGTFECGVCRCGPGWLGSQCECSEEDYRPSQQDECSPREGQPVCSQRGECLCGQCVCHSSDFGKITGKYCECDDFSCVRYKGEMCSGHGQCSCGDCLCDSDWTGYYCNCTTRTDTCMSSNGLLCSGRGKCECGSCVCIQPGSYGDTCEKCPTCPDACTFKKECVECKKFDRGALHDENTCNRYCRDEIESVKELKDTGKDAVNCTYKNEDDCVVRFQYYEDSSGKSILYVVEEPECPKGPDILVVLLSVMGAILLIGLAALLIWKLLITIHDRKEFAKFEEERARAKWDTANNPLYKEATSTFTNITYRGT
Procedure: Platelet incubations were carried out in wells of Falcon flexible polyvinyl chloride (PVC) microtitre plates with 96 U-bottom wells (Becton Dickinson, San Jose, Calif.). ELISA reactions were carried out in 96 well Immulon II polystyrene plates (Dynatech Laboratories, Inc., Chantilly, Va.) that had been precoated with streptavidin. This was accomplished by addition of 75 μl/well of streptavidin (1.25 μg/ml) for 16 hours at 4°, followed by washing four times with 200 μl of 1% TWEEN(polyethylenesorbit -20 in phosphate-buffered saline (PBS), pH 7.4, blocking with 200 μl of 1% bovine serum albumin in PBS for 2 hours at room temperature, and washing again. These plates could be stored at -20° for at least 3 months prior to use in the assay.
(§1) Whole blood was obtained from healthy, drug-free volunteers and anticoagulated with a 1:6 volume of acid-citrate-dextrose formula A. Platelet-rich plasma was collected by centrifugation at 180×g for 20 minutes, incubated for 5 minutes with 1 μM prostaglandin E1 and 1 unit/ml apyrase, then sedimented at 500×g for 10 minutes and resuspended in 5 ml of 2 wash buffer containing 20 mM HEPES, 0.15 M NaCl, 0.1% glucose, 1 μM prostaglandin E1, 1 unit/ml apyrase, and 1.5 mM EDTA, pH 7.4. After another centrifugation at 500×g for 20 minutes, the platelets were finally resuspended to 5.8×10^8 /ml in an incubation buffer containing 137 mM NaCl, 2.7 mM KCl, 1.0 mM MgCl2, 3.3 mM NaH2 PO4, 0.1% glucose, 0.1% bovine serum albumin, and 20 mM HEPES, pH 7.35.
Fifty-five μl of washed platelets were added in triplicate to wells of PVC plates containing 10 μl of the desired agonist (or the activation inhibitor, PGI2) and 25 μl of the desired inhibitory test compound (or the equivalent vehicle as a diluent). After 10 minutes at 37° without shaking, 10 μl of biotin-PAC1 were added to achieve a final antibody concentration of 0.5 μg/ml and a platelet concentration of 3.2×10^8 /ml. After a further 15 minutes incubation at room temperature without shaking, the microtitre plates were centrifuged at 2800 rpm for 10 minutes to sediment the platelets, conditions under which essentially all of the platelets were removed from the supernatant.
After platelet centrifugation, 50 μl of supernatant from each well were transferred to corresponding wells of streptavidin-coated plates and incubated for 30 minutes at room temperature. Each well was then washed four times with 200 μl of PBS/Tween, followed by addition of 50 μl of goat anti-mouse IgM-horseradish peroxidase conjugate (1:1500). After incubation for 60 minutes at room temperature, the plates were again washed four times with PBS/Tween, followed by addition of 50 μl of a reaction mixture containing 1 mg/ml o-phenylenediamine dihydrochloride and 0.012% H2 O2 in 0.1 M citrate buffer, pH 4.5. After a final 20 minutes at room temperature, reactions were stopped with 25 μl of 4 N HCl, and formation of the reaction product was measured at 490 nm in a THERMOmax microplate reader (Molecular Devices, Inc.)
Triplicate aliquots of washed human platelets were incubated in microtitre wells at a final volume of 90 μl in the presence of a platelet agohist such as PMA or thrombin, in order to convert αIIb β3 into a high affinity, ligand-competent state. Compounds that were being tested for their ability to inhibit αIIb β3 were also added to some of the wells at this stage. Other wells contain PGI2 (0.2 μM), a potent platelet activation inhibitor, to purposely maintain αIIb β3 in a low-affinity state. After 10 minutes at 37°, 10 μl of a subsaturating and limiting concentration of biotin-PAC1 was added to each well and the incubation was continued for an additional 15 minutes at room temperature.
The microtitre plates were then centrifuged at 2800 rpm for 10 minutes in order to sediment the platelets. […] In contrast, platelets in wells containing an agonist have bound biotinPAC1. […]

[3] = test system: "internal" pool of activated αIIb β3; settings: unstirred platelets; Woods et al. 1986; cited from earlier work
αIIb β3 = settings: PMA 0.2 μM; Shattil et al., Blood 1987; cited from earlier work
[4] = test system: integrin αIIb β3 (washed platelets); test: flow cytometry of FITC-PAC1 binding to washed platelets; format: cell-based, human; settings: washed platelets stimulated for 15 minutes with 0.2 mM phorbol myristate acetate; representative experiment
Procedure: as §1
Assay variables in each step of the assay were examined systematically. […] Flow cytometry was used to assess the activation state of the platelets using FITC-PAC1 as the activation marker (Shattil et al., Blood 1987, 70, 307). No activation of washed platelets was detected. In a representative experiment, mean FITC-PAC1 binding to washed platelets was 22 arbitrary fluorescence units, a value identical to that obtained with platelets in whole blood or in platelet-rich plasma. FITC-PAC1 binding to washed platelets that had been stimulated for 15 minutes with 0.2 mM phorbol myristate acetate amounted to 1,776 fluorescence units.

protein kinase C = settings: Toullec et al. 1991; cited from earlier work

Compound: O=CC[C@@H](O)[C@H](O)[C@H](O)CO [2-Deoxyglucose]
inhibition of platelet aggregation and secretion [1]: block both platelet aggregation and secretion

Compound: Nc1ncnc2c1ncn2[C@@H]1O[C@H](COP(=O)(O)OP(=O)(O)O)[C@@H](O)[C@H]1O [ADP]
EC50 [2]: ~1000 nM
concentration of maximal αIIb β3 activation ([2]; ADP): 10 µM
extent of biotin-PAC1 binding at maximal agonist concentrations [2]: less
αIIb β3 activation [2]: caused αIIb β3 activation in a dose-dependent manner

biotin-PAC1 bound to platelets in wells containing PGI2 ([2]; PGI2 0.2 μM): do not have bound biotin-PAC1
depletion of PAC1 from supernatant ([2]; PGI2-treated, unactivated platelets, any platelet concentration): No depletion of PAC1 was observed
Compound: CCCCC[C@H](O)/C=C/[C@@H]1[C@H]2C/C(=C/CCCC(=O)O)O[C@H]2C[C@H]1O [PGI2, prostaglandin I2]

Compound: CCCCCCCCCCCCCC(=O)O[C@@H]1[C@@H](C)[C@@]2(O)[C@@H](C=C(CO)C[C@]3(O)C(=O)C(C)=C[C@@H]23)[C@@H]2C(C)(C)[C@]12OC(C)=O [PMA, phorbol myristate acetate]
activation of αIIb β3 in the integrin activation ELISA ([2]; PMA 0.2 μM): maximal activation of αIIb β3
amount of biotin-PAC1 remaining in supernatant ([2]; PMA 0.2 μM, 0.5 μg/ml biotin-PAC1, increasing number of activated platelets): decreased as the number of activated platelets in the well increased
extent of biotin-PAC1 binding at maximal agonist concentrations [2]: similar
stimulation of surface expression of an internal pool of activated αIIb β3 [3]: stimulate the surface expression
activation of αIIb β3 in conventional assays (αIIb β3): maximal activation of αIIb β3
mean FITC-PAC1 binding [4]: 1,776 fluorescence units

Compound: RGDS
inhibition of biotin-PAC1 binding to activated platelets ([2]; activated platelets): inhibited in a dose-dependent manner

Compound: RGES
inhibition of biotin-PAC1 binding to activated platelets ([2]; activated platelets): ineffective

Compound: antimycin A
inhibition of platelet aggregation and secretion [1]: block both platelet aggregation and secretion

Compound: bisindolylmaleimide
concentration of complete inhibition of biotin-PAC1 binding ([2]; PMA-stimulated platelets): 20 µM
IC50 ([2]; PMA-stimulated platelets, read-out: IC50, inhibition of biotin-PAC1 binding): ~1000 nM
concentration maximally effective on protein kinase C in platelets (protein kinase C): 10 to 20 µM

IC50 ([2]; activated platelets, read-out: IC50, inhibition of biotin-PAC1 binding to activated platelets): 400 nM
Compound: fibrinogen

extent of biotin-PAC1 binding at maximal agonist concentrations [2]: similar
concentration of maximal αIIb β3 activation ([2]; thrombin): 0.1 U/ml
Compound: thrombin
αIIb β3 activation [2]: caused αIIb β3 activation in a dose-dependent manner
stimulation of surface expression of an internal pool of activated αIIb β3 [3]: stimulate the surface expression
